Assay results: patent US20250361268A1, “NOVEL ANTI-INFLAMMATORY PEPTIDE AND USE THEREOF” (NOVACELL TECHNOLOGY INC., priority 2022, published 2025)
Peptide text beside a SMILES is read from it.

What was measured:
[1] = molecular target: T1, FPR2 (Homo sapiens, UniProt P25090); experiment: Change in calcium activity by peptide (Fura-2) in RBL cells overexpressing FPR2; assay type: cell-based; details: calcium activity (Fura-2), graded per Table 3, read-out: EC50 for [Ca^2+] FPR2
T1 construct: expressed in transfected cells; host or cells: RBL cells (RBL-FPR2)
T1 sequence (P25090 1-351): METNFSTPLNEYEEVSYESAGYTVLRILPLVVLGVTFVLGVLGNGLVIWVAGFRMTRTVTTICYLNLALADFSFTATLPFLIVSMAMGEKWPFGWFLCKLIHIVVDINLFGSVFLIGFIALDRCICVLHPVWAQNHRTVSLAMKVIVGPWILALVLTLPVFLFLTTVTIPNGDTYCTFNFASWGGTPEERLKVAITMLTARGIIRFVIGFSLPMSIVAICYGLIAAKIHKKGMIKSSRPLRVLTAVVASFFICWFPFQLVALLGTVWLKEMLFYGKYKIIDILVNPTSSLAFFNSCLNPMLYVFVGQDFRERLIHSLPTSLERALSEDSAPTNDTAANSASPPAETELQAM
Protocol: The present inventors observed changes in calcium ion permeability to confirm whether the immunomodulatory peptide candidates prepared according to one example of the present invention activate the immune function of a living organism. Specifically, the concentration of calcium ions in cells was measured to confirm whether the peptides activate FPR2.
A peptide dissolved in water or 50% DMSO at a concentration of 0.5 mM was prepared by diluting it to an appropriate concentration in HBSS (Sigma, #55037C)+20 mM HEPES buffer.
In this experiment, the cells were cultured in DMEM (Lonza, #BE12-604F) containing 10% fetal bovine serum (FBS) and 1% penicillin-streptomycin under conditions of 37° C. and 5% CO2.
(§1) The day before measuring calcium activity, the cells were prepared at 3×10^5 cells per well in a 96-well flat clear bottom black plate (Costar, #3603). The prepared cells were treated with a Fura-2 QBT calcium kit (component A; Molecular Devices, #8197) at the same volume per well. After incubation at 37° C. for 1 hour, the cells were incubated in a dark room at room temperature for 30 minutes. After the Fura-2-treated cells, the prepared peptide, and a dedicated tip were placed at each section of FlexStation 3 Multi-Mode Microplate Reader (Molecular Devices, #Flex3), changes in calcium activity caused by the peptides were measured using SoftMax Pro 7 Software (Molecular Devices, #FLEX3-INSTALL-OS).

[2] = molecular target: T2, FPR1 (Homo sapiens, UniProt P21462); experiment: Change in calcium activity by peptide, FPR1 activation effect; assay type: cell-based; details: calcium activity (Fura-2), graded per Table 3, read-out: EC50 for [Ca^2+] FPR1
T2 sequence (P21462 1-350): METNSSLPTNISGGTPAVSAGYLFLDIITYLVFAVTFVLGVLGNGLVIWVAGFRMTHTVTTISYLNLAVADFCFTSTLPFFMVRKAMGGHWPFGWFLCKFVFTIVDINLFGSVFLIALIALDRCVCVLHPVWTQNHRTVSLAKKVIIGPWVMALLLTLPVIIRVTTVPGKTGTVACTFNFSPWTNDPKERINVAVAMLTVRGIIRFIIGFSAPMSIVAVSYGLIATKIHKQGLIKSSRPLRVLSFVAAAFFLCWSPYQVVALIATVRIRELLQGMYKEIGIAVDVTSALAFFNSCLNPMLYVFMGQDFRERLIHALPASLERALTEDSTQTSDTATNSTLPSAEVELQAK
Protocol: as §1, with “#FLEX3-INSTALL-OS). […]” for “#FLEX3-INSTALL-OS).”

| Structure (SMILES) | EC50 [1] | EC50 [2] |
| --- | --- | --- |
| CSCC[C@H](NC(=O)[C@@H](N)CCCCN)C(=O)N[C@@H](CCCCN)C(=O)N[C@@H](Cc1ccc(O)cc1)C(=O)N[C@@H](CCCCN)C(=O)N1CCC[C@H]1C(=O)N[C@H](CCSC)C(N)=O [Peptide 66] (HELM PEPTIDE1{K.M.K.Y.K.P.[dM].[am]}$$$$V2.0) | 11 to 100 nM | > 10 µM |
| CSCC[C@@H](NC(=O)[C@@H]1CCCN1C(=O)[C@H](CCCCN)NC(=O)[C@H](Cc1ccc(O)cc1)NC(=O)[C@H](CCCCN)NC(=O)[C@H](Cc1c[nH]cn1)NC(C)=O)C(N)=O [Peptide 147] (HELM PEPTIDE1{[ac].H.K.Y.K.P.[dM].[am]}$$$$V2.0) | < 10 nM | > 10 µM |
| CSCC[C@H](NC(=O)[C@@H](N)CCCNC(=N)N)C(=O)N[C@@H](CCCNC(=N)N)C(=O)N[C@@H](Cc1ccc(O)cc1)C(=O)N[C@@H](CCCNC(=N)N)C(=O)N[C@H](C(=O)N[C@H](CCSC)C(N)=O)C(C)C [Peptide 30] (HELM PEPTIDE1{R.M.R.Y.R.V.[dM].[am]}$$$$V2.0) | < 10 nM | > 10 µM |
| CC[C@H](C)[C@H](N)C(=O)N[C@@H](CCCCN)C(=O)N[C@@H](CCCCN)C(=O)N[C@@H](Cc1c[nH]c2ccccc12)C(=O)N[C@@H](CCSC)C(=O)N[C@H](CCSC)C(N)=O [Peptide 130] (HELM PEPTIDE1{I.K.K.W.M.[dM].[am]}$$$$V2.0) | 11 to 100 nM | > 10 µM |
| CSCC[C@@H](NC(=O)[C@@H](NC(=O)[C@H](CCCNC(=N)N)NC(=O)[C@H](Cc1ccc(O)cc1)NC(=O)[C@H](CCCNC(=N)N)NC(=O)[C@H](Cc1c[nH]c2ccccc12)NC(=O)[C@@H](N)CCCNC(=N)N)C(C)C)C(N)=O [Peptide 29] (HELM PEPTIDE1{R.W.R.Y.R.V.[dM].[am]}$$$$V2.0) | < 10 nM | > 10 µM |
| CSCC[C@H](N)C(=O)N[C@@H](CCCNC(=N)N)C(=O)N[C@@H](Cc1ccc(O)cc1)C(=O)N[C@@H](Cc1c[nH]c2ccccc12)C(=O)N[C@@H](Cc1ccc(O)cc1)C(=O)N[C@H](CCSC)C(N)=O [Peptide 85] (HELM PEPTIDE1{M.R.Y.W.Y.[dM].[am]}$$$$V2.0) | < 10 nM | > 10 µM |
| CSCC[C@@H](NC(=O)[C@@H]1CCCN1C(=O)[C@H](Cc1c[nH]c2ccccc12)NC(=O)[C@H](Cc1ccc(O)cc1)NC(=O)[C@H](CCCCN)NC(=O)[C@H](Cc1c[nH]cn1)NC(C)=O)C(N)=O [Peptide 150] (HELM PEPTIDE1{[ac].H.K.Y.W.P.[dM].[am]}$$$$V2.0) | < 10 nM | 1 to 10 µM |
| CSCC[C@H](NC(=O)[C@@H](N)Cc1c[nH]cn1)C(=O)N[C@@H](CCCCN)C(=O)N[C@@H](Cc1ccc(O)cc1)C(=O)N[C@@H](CCCCN)C(=O)N[C@H](C(=O)N[C@H](CCSC)C(N)=O)C(C)C [Peptide 21] (HELM PEPTIDE1{H.M.K.Y.K.V.[dM].[am]}$$$$V2.0) | < 10 nM | > 10 µM |
| CSCC[C@@H](NC(=O)[C@@H]1CCCN1C(=O)[C@H](CCCCN)NC(=O)[C@H](Cc1ccc(O)cc1)NC(=O)[C@H](CCCNC(=N)N)NC(=O)[C@H](Cc1c[nH]c2ccccc12)NC(=O)[C@@H](N)CCCNC(=N)N)C(N)=O [Peptide 74] (HELM PEPTIDE1{R.W.R.Y.K.P.[dM].[am]}$$$$V2.0) | < 10 nM | > 10 µM |
| CCCC(=O)N[C@@H](CCSC)C(=O)N[C@@H](CCCNC(=N)N)C(=O)N[C@@H](Cc1ccc(O)cc1)C(=O)N[C@@H](Cc1c[nH]c2ccccc12)C(=O)N[C@@H](Cc1ccc(O)cc1)C(=O)N[C@H](CCSC)C(N)=O [Peptide 87] (HELM PEPTIDE1{[CCCC(=O)[*:2]].M.R.Y.W.Y.[dM].[am]}$$$$V2.0) | < 10 nM | > 10 µM |
| CSCC[C@H](NC(C)=O)C(=O)N[C@@H](CCCNC(=N)N)C(=O)N[C@@H](Cc1ccc(O)cc1)C(=O)N[C@@H](Cc1c[nH]c2ccccc12)C(=O)N[C@@H](Cc1ccc(O)cc1)C(=O)N[C@H](CCSC)C(N)=O [Peptide 86] (HELM PEPTIDE1{[ac].M.R.Y.W.Y.[dM].[am]}$$$$V2.0) | < 10 nM | > 10 µM |
| CSCC[C@H](NC(=O)[C@@H](N)CCCNC(=N)N)C(=O)N[C@@H](CCCNC(=N)N)C(=O)N[C@@H](Cc1ccc(O)cc1)C(=O)N[C@@H](Cc1c[nH]c2ccccc12)C(=O)N1CCC[C@H]1C(=O)N[C@H](CCSC)C(N)=O [Peptide 106] (HELM PEPTIDE1{R.M.R.Y.W.P.[dM].[am]}$$$$V2.0) | < 10 nM | 0.101 to 1 µM |
| CSCC[C@H](N)C(=O)N[C@@H](CCCNC(=N)N)C(=O)N[C@@H](Cc1ccc(O)cc1)C(=O)N[C@@H](Cc1ccc(O)cc1)C(=O)N[C@H](C(=O)N[C@H](CCSC)C(N)=O)C(C)C [Peptide 100] (HELM PEPTIDE1{M.R.Y.Y.V.[dM].[am]}$$$$V2.0) | < 10 nM | 1 to 10 µM |
| CCCC(=O)N1CCC[C@H]1C(=O)N[C@@H](CCSC)C(=O)N[C@@H](CCCNC(=N)N)C(=O)N[C@@H](Cc1ccc(O)cc1)C(=O)N[C@@H](CCCCN)C(=O)N[C@@H](Cc1ccc(O)cc1)C(=O)N[C@H](CCSC)C(N)=O [Peptide 47] (HELM PEPTIDE1{[CCCC(=O)[*:2]].P.M.R.Y.K.Y.[dM].[am]}$$$$V2.0) | < 10 nM | > 10 µM |
| CC[C@H](C)[C@H](N)C(=O)N[C@@H](CCCCN)C(=O)N[C@@H](Cc1ccccc1)C(=O)N[C@@H](Cc1c[nH]c2ccccc12)C(=O)N[C@@H](CCSC)C(=O)N[C@H](CCSC)C(N)=O [Peptide 129] (HELM PEPTIDE1{I.K.F.W.M.[dM].[am]}$$$$V2.0) | 11 to 100 nM | > 10 µM |
| CCCCCCCC(=O)N[C@@H](Cc1c[nH]cn1)C(=O)N[C@@H](CCSC)C(=O)N[C@@H](CCCNC(=N)N)C(=O)N[C@@H](Cc1ccc(O)cc1)C(=O)N[C@@H](CCCCN)C(=O)N1CCC[C@H]1C(=O)N[C@H](CCSC)C(N)=O [Peptide 61] (HELM PEPTIDE1{[CCCCCCCC(=O)[*:2]].H.M.R.Y.K.P.[dM].[am]}$$$$V2.0) | < 10 nM | > 10 µM |
| CCCCCCCC(=O)N[C@@H](CCSC)C(=O)N[C@@H](CCCNC(=N)N)C(=O)N[C@@H](Cc1ccc(O)cc1)C(=O)N[C@@H](CCCCN)C(=O)N1CCC[C@H]1C(=O)N[C@H](CCSC)C(N)=O [Peptide 57] (HELM PEPTIDE1{[CCCCCCCC(=O)[*:2]].M.R.Y.K.P.[dM].[am]}$$$$V2.0) | < 10 nM | > 10 µM |
| CCCC(=O)N[C@@H](CCCNC(=N)N)C(=O)N[C@@H](CCSC)C(=O)N[C@@H](CCCNC(=N)N)C(=O)N[C@@H](Cc1ccc(O)cc1)C(=O)N[C@@H](Cc1c[nH]c2ccccc12)C(=O)N1CCC[C@H]1C(=O)N[C@H](CCSC)C(N)=O [Peptide 108] (HELM PEPTIDE1{[CCCC(=O)[*:2]].R.M.R.Y.W.P.[dM].[am]}$$$$V2.0) | < 10 nM | 0.101 to 1 µM |
| CSCC[C@@H](NC(=O)[C@@H]1CCCN1C(=O)[C@H](Cc1c[nH]c2ccccc12)NC(=O)[C@H](Cc1ccc(O)cc1)NC(=O)[C@H](CCCNC(=N)N)NC(=O)[C@@H](N)Cc1c[nH]c2ccccc12)C(N)=O [Peptide 118] (HELM PEPTIDE1{W.R.Y.W.P.[dM].[am]}$$$$V2.0) | < 10 nM | 0.101 to 1 µM |
| CSCC[C@H](NC(C)=O)C(=O)N[C@@H](CCCNC(=N)N)C(=O)N[C@@H](Cc1ccc(O)cc1)C(=O)N[C@@H](Cc1ccc(O)cc1)C(=O)N[C@@H](Cc1ccc(O)cc1)C(=O)N[C@H](CCSC)C(N)=O [Peptide 126] (HELM PEPTIDE1{[ac].M.R.Y.Y.Y.[dM].[am]}$$$$V2.0) | 11 to 100 nM | > 10 µM |
